Measured values from patent US20100113430A1, “THIOXANTHENE DERIVATES USEFUL TO TREAT INFECTIOUS DISEASES” (BKG PHARMA APS, priority 2007, published 2010).
≈ marks a conversion by molar mass, not a printed value.

Key:
Format in all cases: cell-based
Streptococci = test: MIC/IC90 broad spectrum, Streptococci; details: 30 strains, 20 resistant
Protocol: (§1) Cell growth was tested using the Minimal Inhibitory Concentration (MIC) susceptibility tests by use of the microdilution broth method in accordance to the NCCLS Guidelines (NCCLS Guidelines, Methods for Dilution Antimicrobial Susceptibility Tests for Bacteria That Grow Aerobically; Approved Standard, Sixth Edition, Volume 23; Number 2). The minimum inhibitory concentration (MIC), is defined ad the lowest concentration of drug which inhibits growth of the test organism, in the sense that no visible growth is detected (total inhibition of growth). In example 2 MIC of the compounds used on fungal microorganisms was determined from the IC90 measurements according to NCCLS Guidelines.
(§2) A log phase culture of bacteria was diluted with fresh pre-warmed Mueller-Hinton medium and adjusted to a defined OD at 600 nm in order to give a final concentration of 1×10^4-5 bacteria/ml medium. The bacterial culture was transferred to microtiter-plates and culture was added to each well. Drug was added to the bacterial culture in the wells as two-fold dilution series of drug in order to give final concentrations ranging from 0.03 to 128 μg/ml. Trays were incubated at 37° C. by shaking in a robot analyzer, PowerWavex, software KC^4′ Kebo.Lab, Copenhagen, for 16 h and optical densities were measured at 600 nm during the incubation time in order to record growth curves. Wells containing bacterial culture without drug were used as controls to ensure correct inoculum size and bacterial growth during the incubation. Cultures were tested in order to detect contaminations. Each experiment was repeated in triplicate. MIC values represent the mean values of two separate triplicate experiments. Intra- and interassay variation was <5%.
Inhibition 90 (IC90) is defined as: OD responding a 90% growth inhibition.
A broad spectrum of bacteria were cultured and assayed as described above for susceptibility towards N-dealkyl-clopenthixol.

[1] = test system: clinically relevant resistant bacterial isolate S. Aureus; test: Growth inhibition by cis/trans combinations, resistant isolate S. Aureus; details: Trans-compound 0.5 μg/ml, Cis-compound 0 μg/ml
Protocol: as §1
as §2, with “Wells containing bacterial culture without drug were used as controls to ensure correct inoculum size and bacterial growth during the incubation. Cultures were tested in order to detect contaminations. Each experiment was repeated in triplicate. MIC values represent the mean values of two separate triplicate experiments. Intra- and interassay variation was <5%.” left out

[2] = test system: Candida glabrata Multiresistant isolate; test: MIC of cis- and trans-forms, Candida glabrata multiresistant isolate; details: Example 4
Protocol: as §1
Cultured microorganisms were assayed as described above. Cis- and trans-isomers of N-dealkyl-clopenthixol was added to the cultures.

[3] = test system: Candida albicans clinical isolate; test: MIC (90% growth inhibition), broth microdilution NCCLS M27-A, Candida albicans; details: strain 1. Candida albicans FR (fluconazole resistant)
Protocol: as §1
The antibacterial effect of demethylated/dealkylated phenothiazine or thioxanthene compounds were studied by growth inhibition studies exposing cells to 0-32 μg/ml of drug. Each experiment was repeated in triplicate. MIC values represent the mean values of two separate triplicate experiments.
4 clinical isolates of Candida sp. (including 3 fluconazole resistant isolates) were subcultured for 24 h on Sabouraud glucose agar before susceptibility testing. Broth microdilution tests were performed according to NCCLS document M27-A (Ref: National Committee for Clinical Laboratory Standards. (1997). Reference Method for Broth Dilution Antifungal Susceptibility Testing of Yeasts: Approved Standard M27-A. NCCLS, Wayne, Pa.). Microtitre plates were read spectrophotometrically at 530 nm, after mixing the wells by pipetting to resuspend yeast sediments. In this experiment, the MIC was defined as the lowest drug dilution resulting in 90% growth inhibition.

[4] = test system: Enterococcus faecium resistant clinical isolates; test: MIC/IC90, resistant clinical isolates of Enterococcus faecium
Protocol: as §1, §2
Inhibition 90 (IC90) is defined as: OD responding a 90% growth inhibition. […]
Clinically relevant isolates were cultured and assayed as described above.

[5] = Enterococcus faecium 16, BLR, CR

Clc1ccc2c(c1)/C(=C/CCN1CCNCC1)c1ccccc1S2 [N-dealkyl-trans-clopenthixol, trans-1-(3-(2-chloro-thioxanthen-9-ylidene)propyl)piperazine]
IC90 (mean) (Streptococci): 0.5 µg/mL (≈ 1.4 µM) | MIC (mean) (Streptococci): 1 µg/mL (≈ 2.8 µM) | MIC range (Streptococci): 0.5 to 2 µg/mL | Growth inhibition [1]: 100% | MIC [2]: 1.0 µg/mL | MIC [3]: 1 µg/mL (≈ 2.8 µM) | IC90 ([4]; Enterococcus faecium 11, VanA): 0.6 µg/mL (≈ 1.68 µM) | MIC ([4]; Enterococcus faecium 11, VanA): 1 µg/mL (≈ 2.8 µM) | IC90 ([4]; Enterococcus faecium 12, VanA): 0.6 µg/mL (≈ 1.68 µM) | MIC ([4]; Enterococcus faecium 12, VanA): 1 µg/mL (≈ 2.8 µM) | IC90 ([4]; Enterococcus faecium 13, VanB): 0.5 µg/mL (≈ 1.4 µM) | MIC ([4]; Enterococcus faecium 13, VanB): 1 µg/mL (≈ 2.8 µM) | IC90 ([4]; Enterococcus faecium 14, HLAR): 0.5 µg/mL (≈ 1.4 µM) | MIC ([4]; Enterococcus faecium 14, HLAR): 1 µg/mL (≈ 2.8 µM) | IC90 ([4]; Enterococcus faecium 15, HLAR): 0.5 µg/mL (≈ 1.4 µM) | MIC ([4]; Enterococcus faecium 15, HLAR): 1 µg/mL (≈ 2.8 µM) | IC90 [4, 5]: 0.6 µg/mL (≈ 1.68 µM) | MIC [4, 5]: 1 µg/mL (≈ 2.8 µM) | IC90 ([4]; Enterococcus faecium 17, VanB): 0.5 µg/mL (≈ 1.4 µM) | MIC ([4]; Enterococcus faecium 17, VanB): 1 µg/mL (≈ 2.8 µM) | IC90 ([4]; Enterococcus faecium 18, VanB): 0.6 µg/mL (≈ 1.68 µM) | MIC ([4]; Enterococcus faecium 18, VanB): 1 µg/mL (≈ 2.8 µM) | IC90 ([4]; Enterococcus faecium 19, VanB): 0.6 µg/mL (≈ 1.68 µM) | MIC ([4]; Enterococcus faecium 19, VanB): 1 µg/mL (≈ 2.8 µM) | MIC ([4]; Enterococcus faecium multiresistant isolate, Example 4): 0.5 µg/mL (≈ 1.4 µM)
